Data on seven molecules can be found in BindingDB's records for doi:10.1021/jm020865i (Departement D'Ingenierie Et D'Etudes Des Proteines, 2002).

For assay [1], the target named is Peptidyl-prolyl cis-trans isomerase A, cyclophilin A (Homo sapiens) (UniProt P62937). Briefly: The compound was evaluated for its binding affinity against Human Cyclophilin hCyp-18 Peptidyl-prolyl isomerase.
Assay [2] shares this target. The assay is described as follows: Inhibitory activity against Human Cyclophilin hCyp-18 Peptidyl-prolyl isomerase by using the standard trypsin-coupled PPIase (peptidyl-prolyl isomerases) assay.
For assay [3] the target is unchanged. The assay is described as follows: The compound was evaluated for its binding affinity against Human Cyclophilin hCyp-18 Peptidyl-prolyl isomerase. The source holds these as a separate data set.

The structures appear in SMILES notation. *1 amine or outer side, *2 acyl side, *3 side chain or, on linkers, in order; H or OH if unused. Where a SMILES comes first, the peptide text is derived from it. The star is where a group is joined. pNA = O=[N+]([O-])c1ccc(N*)cc1; Suc = O=C(CCC(=O)[*:2])[*:1]

Chain of Peptidyl-prolyl cis-trans isomerase A, cyclophilin A (Homo sapiens) (P62937 whole entry, looked up): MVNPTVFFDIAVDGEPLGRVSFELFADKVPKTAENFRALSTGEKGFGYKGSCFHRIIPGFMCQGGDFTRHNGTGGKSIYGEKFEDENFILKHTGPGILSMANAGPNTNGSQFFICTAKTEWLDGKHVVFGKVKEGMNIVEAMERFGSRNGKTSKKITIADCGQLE

In general, Kd refers to a measure of binding affinity in units of concentration. As usually defined, the IC50 is the midpoint of a concentration-inhibition curve. Read a high IC50 as weaker potency. For the molecule `CC(=O)N[C@@H](C)C(=O)N[C@@H](C)C(=O)N1CCC[C@H]1C(=O)N[C@@H](Cc1ccccc1)C(=O)Nc1ccc([N+](=O)[O-])cc1` [1-[2-(2-Acetylamino-propionylamino)-propionyl]-pyrrolidine-2-carboxylic acid [1-(4-nitro-phenylcarbamoyl)-2-phenyl-ethyl]-amide] (Ac-AAPF-pNA), in assay [1], binding was characterised by a dissociation constant (Kd) of 145 µM. Besides, half-maximal inhibition in assay [2] (IC50) was put at 640 µM.

For the molecule `CC(=O)N[C@@H](C)C(=O)NCC(=O)C(=O)N1CCCC1C(=O)N[C@@H](Cc1ccccc1)C(=O)Nc1ccc([N+](=O)[O-])cc1` (some centres not stated) [1-[3-(2-Acetylamino-propionylamino)-2-oxo-propionyl]-pyrrolidine-2-carboxylic acid [1-(4-nitro-phenylcarbamoyl)-2-phenyl-ethyl]-amide], the Kd in assay [1] worked out at 127 µM. This molecule also yielded an IC50 in assay [2] of 215 µM.

In assay [1], `C[C@H](NC(=O)CCC(=O)O)C(=O)N[C@@H](C)C(=O)N1CCC[C@H]1C(=O)N[C@@H](Cc1ccccc1)C(=O)Nc1ccc([N+](=O)[O-])cc1` [N-[1-(1-Methyl-2-{2-[1-(4-nitro-phenylcarbamoyl)-2-phenyl-ethylcarbamoyl]-pyrrolidin-1-yl}-2-oxo-ethylcarbamoyl)-ethyl]-succinamic acid] (Suc-AAPF-pNA) came in with an equilibrium dissociation constant (Kd) of 135 µM. For the same molecule, in assay [2], the concentration for half-maximal inhibition (IC50) is 540 µM.

`C[C@H](NC(=O)CCC(=O)O)C(=O)NCC(=O)N1CCC[C@H]1C(=O)N[C@@H](Cc1ccccc1)C(=O)Nc1ccc([N+](=O)[O-])cc1` [N-[1-(2-{2-[1-(4-Nitro-phenylcarbamoyl)-2-phenyl-ethylcarbamoyl]-pyrrolidin-1-yl}-2-oxo-ethylcarbamoyl)-ethyl]-succinamic acid] (Suc-AGPF-pNA) showed a concentration for half-maximal inhibition (IC50) in assay [2] of 1450 µM. The same molecule showed a dissociation constant Kd in assay [3] of 140 µM.

As to `CCOP(=O)(CNC(=O)[C@H](C)NC(=O)CCC(=O)O)N1CCCC1C(=O)N[C@@H](Cc1ccccc1)C(=O)Nc1ccc([N+](=O)[O-])cc1` (some centres not stated) [N-{1-[(Ethoxy-{2-[1-(4-nitro-phenylcarbamoyl)-2-phenyl-ethylcarbamoyl]-pyrrolidin-1-yl}-phosphinoylmethyl)-carbamoyl]-ethyl}-succinamic acid], the Kd in assay [1] came to 20 µM. The molecule also came in with a 50% inhibitory concentration (IC50) in assay [2] of 15 µM.

For `COC(=O)Cc1ccc(NC(=O)[C@H](Cc2ccccc2)NC(=O)C2CCCN2P(=O)(O)CNC(=O)[C@H](C)NC(C)=O)cc1` (some centres not stated) [[(2-Acetylamino-propionylamino)-methyl]-{2-[1-(4-methoxycarbonylmethyl-phenylcarbamoyl)-2-phenyl-ethylcarbamoyl]-pyrrolidin-1-yl}-phosphinic acid anion], the equilibrium dissociation constant (Kd) in assay [1] was 79 µM.

In the case of `CCOP(=O)(CNC(=O)[C@H](C)NC(C)=O)N1CCCC1C(=O)N[C@H](CNc1ccc([N+](=O)[O-])cc1)Cc1ccccc1` (some centres not stated) [[(2-Acetylamino-propionylamino)-methyl]-{2-[1-benzyl-2-(4-nitro-phenylamino)-ethylcarbamoyl]-pyrrolidin-1-yl}-phosphinic acid ethyl ester], in assay [1], the Kd worked out at 200 µM.
